What was measured:
OVCAR-8 = test: NCI 60 single concentration growth inhibition; format: cell-based, human; settings: OVCAR-8, Ovarian cancer; for inhibition at 10 µM: Homo sapiens, read-out: GI%; for GI%: 10 μM
Description: (§1) The synthesized dichlorobenzimidazoles 10a–p were assayed for their influence on divers cancer cell lines according to the method presented in the Additional file A.
(§2) 5. Screening of cytotoxic activity against a panel of sixty human tumor cell lines
(§3) The selected compounds by NCI were evaluated for their anticancer activity in a two-stage process. First, these compounds were screened against the full NCI 60 cell lines panel at a single high dose of 10 µM. Then, the output from the single dose screen is reported as a mean graph. […]
(§4) at five different minimal concentrations.
(§5) Assay protocol. The human tumor cell lines of the cancer screening panel are grown in RPMI 1640 medium containing 5% fetal bovine serum and 2 mM L-glutamine. For a typical screening experiment, cells are inoculated into 96 well microtiter plates in 100 µL at plating densities ranging from 5000 to 40,000 cells/well depending on the doubling time of individual cell lines. After cell inoculation, the microtiter plates are incubated at 37 °C, 5% CO 2, 95% air and 100% relative humidity for 24 h prior to addition of the experimental drugs.
(§6) After 24 h, two plates of each cell line are fixed in situ with TCA, to represent a measurement of the cell population for each cell line at the time of drug addition (Tz). The experimental drugs are solubilized in dimethyl sulfoxide at 400-fold the desired final maximum test concentration and stored frozen prior to use. At the time of drug addition, an aliquot of frozen concentrate is thawed and diluted to twice the desired final maximum test concentration with complete medium containing 50 µg/mL gentamicin. Additional four, 10-fold or ½ log serial dilutions are made to provide a total of five drug concentrations plus control.
(§7) Aliquots of […] of these different drug dilutions are added to the appropriate microtiter wells already containing […] of medium, resulting in the required final drug concentrations.
(§8) Following drug addition, the plates are incubated for an additional 48 h at 37 °C, 5% CO 2, 95% air, and 100% relative humidity. For adherent cells, the assay is terminated by the addition of cold TCA.
(§9) Cells are fixed in situ by the gentle addition of 50 µL of cold 50% (w/v) TCA (final concentration, 10% TCA) and incubated for 60 min at 4 °C. The supernatant is discarded, and the plates are washed five times with tap water and air dried. Sulforhodamine B (SRB) solution ([…]) at 0.4% (w/v) in 1% acetic acid is added to each well, and plates are incubated for 10 min at room temperature. After staining, unbound dye is removed by washing five times with 1% acetic acid and the plates are air dried. Bound stain is subsequently solubilized with 10 mM trizma base, and the absorbance is read on an automated plate reader at a wavelength of 515 nm. For suspension cells, the methodology is […]
(§10) the same except that the assay is terminated by fixing settled cells at the bottom of the wells by gently adding 50 µl of 80% TCA (final concentration, 16% TCA). Using the seven absorbance measurements [time zero, (Tz), control growth, (C), and test growth in the presence of drug at the five concentration levels (Ti)], the percentage growth is calculated at each of the drug concentrations […]
(§11) Percentage growth inhibition is calculated as: [(Ti Tz)/(C–Tz)] x 100 for concentrations for which Ti>/=Tz and [(Ti-Tz)/Tz] x 100 for concentrations for which Ti < Tz.
(§12) Three dose response parameters are calculated for each experimental agent. Growth […]
(§13) concentration resulting in a 50% reduction in the net protein increase (as measured by SRB staining) in control cells during the drug incubation. The drug concentration resulting in total growth inhibition (TGI) is calculated from Ti = Tz. […]
(§14) reduction in the measured protein at the end of the drug treatment as compared to that at the beginning) indicating a net loss of cells following treatment is calculated from [(Ti–Tz)/Tz] x 100 =
(§15) _50. Values are calculated for each of these three parameters if the level of activity is reached; […]

SK-MEL-2 = test: NCI 60 single concentration growth inhibition; format: cell-based, human; settings: SK-MEL-2, Melanoma; for inhibition at 10 µM: Homo sapiens, read-out: GI%; for GI%: 10 μM
Description: as §1, §2, §3, §4, §5, §6, §7, §8, §9, §10, §11, §12, §13, §14, §15

SF-295 = test: NCI 60 single concentration growth inhibition; format: cell-based, human; settings: SF-295, CNS cancer; for inhibition at 10 µM: Homo sapiens, read-out: GI%; for GI%: 10 μM
Description: as §1, §2, §3, §4, §5, §6, §7, §8, §9, §10, §11, §12, §13, §14, §15

SK-MEL-5 = test: NCI 60 single concentration growth inhibition; format: cell-based, human; settings: SK-MEL-5, Melanoma; for inhibition at 10 µM: Homo sapiens, read-out: GI%; for GI%: 10 μM
Description: as §1, §2, §3, §4, §5, §6, §7, §8, §9, §10, §11, §12, §13, §14, §15

HL-60(TB) = test: NCI 60 single concentration growth inhibition; format: cell-based, human; settings: Leukemia; for inhibition at 10 µM: Homo sapiens, read-out: GI%; for GI%: 10 μM
Description: as §1, §2, §3, §4, §5, §6, §7, §8, §9, §10, §11, §12, §13, §14, §15

MDA-MB-231/ATCC = test: NCI 60 single concentration growth inhibition; format: cell-based, human; settings: Breast cancer; for inhibition at 10 µM: Homo sapiens, read-out: GI%; for GI%: 10 μM
Description: as §1, §2, §3, §4, §5, §6, §7, §8, §9, §10, §11, §12, §13, §14, §15

BRAFWT = target: T1, BRAFWT (Homo sapiens, UniProt P15056); test: BRAFWT kinase assay kit (Kinase-Glo Max luminescence); format: biochemical; settings: mean of two independent experiments ± SD; for inhibition at 10 µM / % inhibition: BRAFwt, 10 µM
T1 construct: purchased BPS Biosciences 78316
T1 sequence (P15056 whole entry): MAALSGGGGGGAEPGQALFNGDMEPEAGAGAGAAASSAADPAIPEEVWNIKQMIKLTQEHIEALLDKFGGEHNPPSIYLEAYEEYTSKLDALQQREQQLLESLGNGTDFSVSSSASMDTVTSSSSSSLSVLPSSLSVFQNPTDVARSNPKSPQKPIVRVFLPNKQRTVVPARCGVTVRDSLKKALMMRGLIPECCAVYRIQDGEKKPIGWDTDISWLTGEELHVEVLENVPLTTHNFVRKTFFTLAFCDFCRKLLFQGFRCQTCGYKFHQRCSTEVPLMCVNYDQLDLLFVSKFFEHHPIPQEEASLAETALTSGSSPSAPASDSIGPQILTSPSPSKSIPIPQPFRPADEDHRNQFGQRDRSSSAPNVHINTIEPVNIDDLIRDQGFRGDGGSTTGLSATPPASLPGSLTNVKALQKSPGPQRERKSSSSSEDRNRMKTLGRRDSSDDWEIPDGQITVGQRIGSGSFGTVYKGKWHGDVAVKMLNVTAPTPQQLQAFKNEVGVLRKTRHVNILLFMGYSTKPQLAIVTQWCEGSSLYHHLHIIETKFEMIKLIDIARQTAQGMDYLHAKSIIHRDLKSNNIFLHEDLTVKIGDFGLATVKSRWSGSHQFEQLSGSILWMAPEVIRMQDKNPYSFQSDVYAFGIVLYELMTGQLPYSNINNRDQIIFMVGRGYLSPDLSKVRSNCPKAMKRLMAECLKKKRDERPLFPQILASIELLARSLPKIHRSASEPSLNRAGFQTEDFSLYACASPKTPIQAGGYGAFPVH
Description: The inhibitory activities of 10a–p on BRAFWT was examined utilizing BRAFWT assay kit (BPS Biosciences—San Diego—CA—US) (For further information see Additional file A).
4. Biochemical kinase assays
The inhibitory activity against different kinases was determined using kinase kits (BRAF WT […]
Glo Max luminescence kinase assay kit (Promega).
The assay was carried out according to the protocol provided by the manufacturer. A stock solution of the synthesized derivatives in 100% DMSO was prepared. Subsequently, the compounds were diluted to 10% DMSO.
A master mixture was prepared according to the number of wells. For BRAF assay each well include 6 μl of 5x Kinase Buffer 1 + 1 μl of ATP (500 μM) + 10 μl of 5X Raf substrate + 8 μl of distilled water. 1x Kinase buffer 1 was prepared by mixing 600 μl of 5x Kinase Buffer 1 with 2400 μl water to give 3 mL. Kinases were thawed on ice and were diluted with 1x Kinase Buffer 1.
To start the biochemical reaction, 25 µL of the master mixture was added to each well in 96 well plate. 5 µL of 10% DMSO was added to positive control wells and blank wells. 5 µL of diluted inhibitor was added to each well labelled with the test inhibitor so that the final concentration of DMSO is 1% in all reactions. Then 20 µL of (2.5 ng/μl) in case of BRAF WT and (1 ng / μl) in case of VEGFR-2 and FGFR-1 in 1x kinase buffer was added to positive control wells and wells labelled with the inhibitor, while 20 µL 1x kinase buffer 1 was added to the blank wells.
The plate was incubated at 30 °C for 45 min. Subsequently, 50 μl of Kinase-Glo Max luminescence reagent was added to each well and the plate was covered with aluminum foil and incubated at room temperature for 15 min. Finally, the luminescence was recorded using multimode microplate reader. Kinase activity assays were performed in duplicate at each concentration.
The luminescence data were analyzed as follows. The difference between luminescence intensities in the absence of kinase (Lu t) and in the presence of kinase (Lu c) was defined as 100 % […]
calculated as: % activity = {(Lu t - Lu)/(Lut - Luc)} ×100%. The concentration of the test compounds required to reduce the kinase activity by 50% was determined from dose-response curves and […]

[1] = tested on: NCI 60 cancer cell line panel; test: NCI 60 single concentration growth inhibition, panel mean; format: cell-based; settings: Homo sapiens, mean over NCI 60 panel, read-out: Mean GI%
Description: as §1, §2, §3, §4, §5, §6, §7, §8, §9, §10, §11, §12, §13, §14, §15

| Compound | inhibition at 10 µM (OVCAR-8) [%] | inhibition at 10 µM (SK-MEL-2) [%] | inhibition at 10 µM (SF-295) [%] | inhibition at 10 µM (SK-MEL-5) [%] | inhibition at 10 µM (HL-60(TB)) [%] | inhibition at 10 µM (MDA-MB-231/ATCC) [%] | inhibition at 10 µM (BRAFWT) [%] | inhibition at 10 µM [1] [%] | GI% (OVCAR-8) | GI% (SK-MEL-2) | GI% (SF-295) | GI% (SK-MEL-5) | GI% (HL-60(TB)) | GI% (MDA-MB-231/ATCC) | % inhibition (BRAFWT) [%] | IC50 (BRAFWT) [µM] |
| --- | --- | --- | --- | --- | --- | --- | --- | --- | --- | --- | --- | --- | --- | --- | --- | --- |
| COC(=O)COc1ccc(C=NNC(=O)Cn2c(-c3ccc(OC)cc3)nc3cc(Cl)c(Cl)cc32)cc1OC [Compound 10p, Methyl-2-(4-((2-(2-(5,6-dichloro-2-(4-methoxyphenyl)-1H-benzo[d]imidazol-1-yl)acetyl)hydrazono)methyl)-2-methoxyphenoxy)acetate] | 143 | 24.1 | < 5 | 6.06 | < 5 | 64.6 | 90.5 ± 8.9 | 37.6 |  |  |  |  |  |  |  |  |
| COc1ccc(-c2nc3cc(Cl)c(Cl)cc3n2CC(=O)NN=Cc2ccc(O)c(OC)c2)cc1 [Compound 10l, 2-(5,6-Dichloro-2-(4-methoxyphenyl)-1H-benzo[d]imidazol-1-yl)-N'-(4-hydroxy-3-methoxybenzylidene)acetohydrazide] | 27.1 | 18.6 | 38.1 | 57.9 | 44.5 | 17.2 | 52.3 ± 4.92 | 34.6 |  |  |  |  |  |  |  |  |
| COc1ccc(C=NNC(=O)Cn2c(-c3ccc(OC)cc3)nc3cc(Cl)c(Cl)cc32)cc1 [Compound 10d, 2-(5,6-Dichloro-2-(4-methoxyphenyl)-1H-benzo[d]imidazol-1-yl)-N'-(4-methoxybenzylidene)acetohydrazide] | 22.4 | 30.9 | 66.8 | 78.9 | 40.9 | 27.4 | 52.7 ± 0.87 | 44.6 |  |  |  |  |  |  |  |  |
| COc1ccc(-c2nc3cc(Cl)c(Cl)cc3n2CC(=O)NN=Cc2ccc(OC)c(O)c2)cc1 [Compound 10k, 2-(5,6-Dichloro-2-(4-methoxyphenyl)-1H-benzo[d]imidazol-1-yl)-N'-(3-hydroxy-4-methoxybenzylidene)acetohydrazide] | 29.3 | 40.2 | 50 | 62.2 | 60.8 | 33.9 | 47.6 ± 3.8 | 35.4 |  |  |  |  |  |  |  |  |
| 3-(4-((2-(2-(5,6-Dichloro-2-(4-methoxyphenyl)-1H-benzo[d]imidazol-1-yl)acetyl)hydrazono)methyl)phenoxy)propanoic acid [Compound 10i] |  |  |  |  |  |  |  |  | – (GI% < 5%) | – (GI% < 5%) | 15.06% | 14.39% | – (GI% < 5%) | 12.19% | 74.95 ± 5.15 |  |
| COC(=O)COc1ccc(C=NNC(=O)Cn2c(-c3ccc(OC)cc3)nc3cc(Cl)c(Cl)cc32)cc1 [Compound 10h, Methyl-2-(4-((2-(2-(5,6-dichloro-2-(4-methoxyphenyl)-1H-benzo[d]imidazol-1-yl)acetyl)hydrazono)methyl)phenoxy)acetate] | 148 | 26.4 | < 5 | < 5 | < 5 | 94.5 | 91.2 ± 6.5 | 36.6 |  |  |  |  |  |  |  | 1.72 ± 0.09 |
| COc1ccc(-c2nc3cc(Cl)c(Cl)cc3n2CC(=O)NN=Cc2ccc(O)cc2)cc1 [Compound 10b, 2-(5,6-Dichloro-2-(4-methoxyphenyl)-1H-benzo[d]imidazol-1-yl)-N'-(4-hydroxybenzylidene)acetohydrazide] | 28 | 32.3 | 34 | 52.1 | 50.7 | 21.2 | 21.9 ± 1.62 | 38.5 |  |  |  |  |  |  |  |  |
| COc1ccc(-c2nc3cc(Cl)c(Cl)cc3n2CC(=O)NN=Cc2ccc(OCC(=O)O)cc2)cc1 [Compound 10f, 2-(4-((2-(2-(5,6-Dichloro-2-(4-methoxyphenyl)-1H-benzo[d]imidazol-1-yl)acetyl)hydrazono)methyl)phenoxy)acetic acid] | < 5 | < 5 | < 5 | < 5 | < 5 | < 5 | 53.15 ± 0.36 | < 5 |  |  |  |  |  |  |  |  |
| 2-(5-((2-(2-(5,6-Dichloro-2-(4-methoxyphenyl)-1H-benzo[d]imidazol-1-yl)acetyl)hydrazono)methyl)-2-methoxyphenoxy)acetic acid [Compound 10n] |  |  |  |  |  |  |  |  | – (GI% < 5%) | – (GI% < 5%) | – (GI% < 5%) | – (GI% < 5%) | – (GI% < 5%) | 11.50% | 90.05 ± 5.16 |  |
| 2-(4-((2-(2-(5,6-Dichloro-2-(4-methoxyphenyl)-1H-benzo[d]imidazol-1-yl)acetyl)hydrazono)methyl) -2-methoxyphenoxy)acetic acid [Compound 10m] |  |  |  |  |  |  |  |  | – (GI% < 5%) | – (GI% < 5%) | – (GI% < 5%) | – (GI% < 5%) | – (GI% < 5%) | – (GI% < 5%) | 77.25 ± 1.06 |  |

From article PMC11844072, “Novel 5,6-dichlorobenzimidazole derivatives as dual BRAFWT and BRAFV600E inhibitors: design, synthesis, anti-cancer activity and molecular dynamics simulations” (BMC Chemistry, 2025)
